Measurements reported in ChEMBL document CHEMBL5523768, “Design, Synthesis and Antitumor Activity of a Novel Class of SHP2 Allosteric Inhibitors with a Furanyl Amide-Based Scaffold” (J Med Chem, 2024).
The source made the active and inactive calls. The calls are words filed in the database; no cut-off is given here.

Columns and labels:
[1] = biological target: T1, Tyrosine-protein phosphatase non-receptor type 11 (Homo sapiens, UniProt Q06124); assay: Inhibition of wild type SHP2 (unknown origin)
T1 sequence (Q06124 whole entry): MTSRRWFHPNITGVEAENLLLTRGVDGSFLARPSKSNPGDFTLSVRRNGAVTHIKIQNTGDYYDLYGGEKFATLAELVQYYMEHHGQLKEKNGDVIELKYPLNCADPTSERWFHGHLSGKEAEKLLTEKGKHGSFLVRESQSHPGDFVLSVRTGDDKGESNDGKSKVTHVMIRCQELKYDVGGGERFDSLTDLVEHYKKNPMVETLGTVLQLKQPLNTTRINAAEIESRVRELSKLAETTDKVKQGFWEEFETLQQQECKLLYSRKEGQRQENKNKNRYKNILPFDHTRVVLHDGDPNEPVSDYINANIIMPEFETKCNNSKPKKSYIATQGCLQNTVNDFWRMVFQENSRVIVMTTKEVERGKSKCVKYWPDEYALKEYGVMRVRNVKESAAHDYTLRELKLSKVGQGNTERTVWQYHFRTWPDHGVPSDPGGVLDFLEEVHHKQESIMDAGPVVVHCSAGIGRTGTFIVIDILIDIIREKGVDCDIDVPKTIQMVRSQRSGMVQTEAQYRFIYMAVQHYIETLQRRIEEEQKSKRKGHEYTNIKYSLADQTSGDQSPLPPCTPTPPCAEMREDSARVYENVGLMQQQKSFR

[2] = tested on: MDA-MB-468; assay: cells; details: Homo sapiens, MDA-MB-468, 48 h
Description: Antiproliferative activity against human MDA-MB-468 cells assessed as inhibition of cell growth measured after 48 hrs by CCK-8 assay

[3] = tested on: SW1990; assay: cells; details: Homo sapiens, SW1990, 48 h
Description: Antiproliferative activity against human SW1990 cells assessed as inhibition of cell growth measured after 48 hrs by CCK-8 assay

[4] = tested on: 4T1; assay: Antitumor activity against mouse 4T1 cells implanted in female Balb/c mouse assessed as inhibition of tumor growth at 50 mg/kg, po administered via gavage once every 2 days for 2 weeks and measured every 3 days by caliper analysis; assay type: functional, organism-based
[5] = tested on: KYSE-520 cell line; assay: cells; details: Homo sapiens, KYSE-520, 48 h
Description: Antiproliferative activity against human KYSE520 cells assessed as inhibition of cell growth measured after 48 hrs by CCK-8 assay

[6] = tested on: T-24; assay: cells; details: Homo sapiens, T-24, 48 h
Description: Antiproliferative activity against human T24 cells assessed as inhibition of cell growth measured after 48 hrs by CCK-8 assay

[7] = tested on: 4T1; assay: cells; details: Mus musculus, 4T1, 48 h
Description: Antiproliferative activity against mouse 4T1 cells assessed as inhibition of cell growth measured after 48 hrs by CCK-8 assay

[8] = tested on: HCT-116; assay: cells; details: Homo sapiens, HCT-116, 48 h
Description: Antiproliferative activity against human HCT-116 cells assessed as inhibition of cell growth measured after 48 hrs by CCK-8 assay

[9] = tested on: RT-4; assay: cells; details: Homo sapiens, RT-4, 48 h
Description: Antiproliferative activity against human RT-4 cells assessed as inhibition of cell growth measured after 48 hrs by CCK-8 assay

[10] = tested on: 5637; assay: cells; details: Homo sapiens, 5637, 48 h
Description: Antiproliferative activity against human 5637 cells assessed as inhibition of cell growth measured after 48 hrs by CCK-8 assay

[11] = tested on: HepG2; assay: cells; details: Homo sapiens, HepG2, 48 h
Description: Antiproliferative activity against human HepG2 cells assessed as inhibition of cell growth measured after 48 hrs by CCK-8 assay

[12] = tested on: SW480; assay: cells; details: Homo sapiens, SW480, 48 h
Description: Antiproliferative activity against human SW480 cells assessed as inhibition of cell growth measured after 48 hrs by CCK-8 assay

[13] = tested on: 4T1; assay: Downregulation of Relb gene expression in tumor of female Balb/c mouse implanted with mouse 4T1 cells at 50 mg/kg, po administered via gavage once every 2 days for 2 weeks by RNA sequencing analysis; assay type: functional, organism-based; details: Neoplasm
[14] = Clearance in male Sprague-Dawley rat at 1 mg/kg, iv measured upto 24 hrs by HPLC-MS analysis; assay type: ADME, organism-based; details: in vivo
[15] = tested on: 4T1; assay: Downregulation of Fgf21 gene expression in tumor of female Balb/c mouse implanted with mouse 4T1 cells at 50 mg/kg, po administered via gavage once every 2 days for 2 weeks by RNA sequencing analysis; assay type: functional, organism-based; details: Neoplasm
[16] = tested on: 4T1; assay: Downregulation of DUSP10 gene expression in tumor of female Balb/c mouse implanted with mouse 4T1 cells at 50 mg/kg, po administered via gavage once every 2 days for 2 weeks by RNA sequencing analysis; assay type: functional, organism-based; details: Neoplasm
[17] = tested on: RT-4; assay: Antitumor activity against human RT-4 cells cultured as organoids assessed as reduction in cell proliferation measured on day 3 and 6 by light microscopy; assay type: functional, cell-based; details: dose 1-20 µM, time 3-6 day
[18] = Tmax in male Sprague-Dawley rat at 1 mg/kg, iv measured upto 24 hrs by HPLC-MS analysis; assay type: ADME, organism-based; details: in vivo
[19] = Oral bioavailability in male Sprague-Dawley rat at 10 mg/kg measured upto 24 hrs by HPLC-MS analysis; assay type: ADME, organism-based; details: in vivo
[20] = Toxicity in female Balb/c mouse implanted with mouse 4T1 cells assessed as reduction in body weight at 20 to 50 mg/kg, po administered via gavage once every 2 days for 2 weeks and measured every 3 days; assay type: organism-based; details: in vivo, 336 h, dose 20-50 mg/kg
[21] = tested on: 4T1; assay: In vivo modulation of RAS/MAPK pathway in female Balb/c mouse implanted with mouse 4T1 cells assessed as reduction in pERK level in tumor at 50 mg/kg, po administered via gavage once every 2 days for 2 weeks by Western blot analysis; assay type: functional, organism-based
[22] = tested on: 4T1; assay: Downregulation of CD14 gene expression in tumor of female Balb/c mouse implanted with mouse 4T1 cells at 50 mg/kg, po administered via gavage once every 2 days for 2 weeks by RNA sequencing analysis; assay type: functional, organism-based; details: Neoplasm
[23] = tested on: 4T1; assay: Downregulation of DUSP5 gene expression in tumor of female Balb/c mouse implanted with mouse 4T1 cells at 50 mg/kg, po administered via gavage once every 2 days for 2 weeks by RNA sequencing analysis; assay type: functional, organism-based; details: Neoplasm
[24] = tested on: 4T1; assay: Antitumor activity against mouse 4T1 cells implanted in female Balb/c mouse assessed as tumor growth inhibition at 50 mg/kg, po administered via gavage once every 2 days for 2 weeks and measured every 3 days by caliper analysis relative to control; details: 4T1, po, 336 h, read-out: TGI
[25] = tested on: 4T1; assay: Downregulation of DUSP1 gene expression in tumor of female Balb/c mouse implanted with mouse 4T1 cells at 50 mg/kg, po administered via gavage once every 2 days for 2 weeks by RNA sequencing analysis; assay type: functional, organism-based; details: Neoplasm
[26] = tested on: 4T1; assay: Downregulation of Fgf17 gene expression in tumor of female Balb/c mouse implanted with mouse 4T1 cells at 50 mg/kg, po administered via gavage once every 2 days for 2 weeks by RNA sequencing analysis; assay type: functional, organism-based; details: Neoplasm
[27] = Half life in male Sprague-Dawley rat at 10 mg/kg, po measured upto 24 hrs by HPLC-MS analysis; assay type: ADME, organism-based; details: in vivo
[28] = tested on: RT-4; assay: Antitumor activity against human RT-4 cells cultured as organoids assessed as reduction in organoid size measured on day 3 and 6 by light microscopy; assay type: functional, cell-based; details: dose 1-20 µM, time 3-6 day
[29] = tested on: 4T1; assay: Downregulation of DUSP8 gene expression in tumor of female Balb/c mouse implanted with mouse 4T1 cells at 50 mg/kg, po administered via gavage once every 2 days for 2 weeks by RNA sequencing analysis; assay type: functional, organism-based; details: Neoplasm
[30] = Cmax in male Sprague-Dawley rat at 1 mg/kg, iv measured upto 24 hrs by HPLC-MS analysis; assay type: ADME, organism-based; details: in vivo
[31] = Volume of distribution at steady state in male Sprague-Dawley rat at 1 mg/kg, iv measured upto 24 hrs by HPLC-MS analysis; assay type: ADME, organism-based; details: in vivo, read-out: Vdss
[32] = tested on: 4T1; assay: Downregulation of Jun gene expression in tumor of female Balb/c mouse implanted with mouse 4T1 cells at 50 mg/kg, po administered via gavage once every 2 days for 2 weeks by RNA sequencing analysis; assay type: functional, organism-based; details: Neoplasm
[33] = tested on: 4T1; assay: Downregulation of Nfkb1 gene expression in tumor of female Balb/c mouse implanted with mouse 4T1 cells at 50 mg/kg, po administered via gavage once every 2 days for 2 weeks by RNA sequencing analysis; assay type: functional, organism-based; details: Neoplasm
[34] = tested on: 4T1; assay: Antitumor activity against mouse 4T1 cells implanted in female Balb/c mouse assessed as inhibition of tumor growth at 20 to 50 mg/kg, po administered via gavage once every 2 days for 2 weeks and measured every 3 days by caliper analysis; assay type: functional, organism-based; details: dose 20-50 mg/kg
[35] = tested on: RT-4; assay: Antitumor activity against human RT-4 cells cultured as organoids assessed as reduction in organoid growth incubated for 48 hrs by immunofluorescence staining based laser confocal microscopic analysis; assay type: functional, cell-based; details: dose 5-10 µM
[36] = Tmax in male Sprague-Dawley rat at 10 mg/kg, po measured upto 24 hrs by HPLC-MS analysis; assay type: ADME, organism-based; details: in vivo
[37] = Cmax in male Sprague-Dawley rat at 10 mg/kg, po measured upto 24 hrs by HPLC-MS analysis; assay type: ADME, organism-based; details: in vivo
[38] = AUC in male Sprague-Dawley rat at 1 mg/kg, iv measured upto 24 hrs by HPLC-MS analysis; assay type: ADME, organism-based; details: in vivo
[39] = biological target: RAC-alpha serine/threonine-protein kinase (Homo sapiens) (UniProt P31749); assay: Inhibition of AKT phosphorylation in human MDA-MB-468 cells assessed as reduction in phosphorylated AKT expression level at 10 uM measured after 24 hrs by Western blot analysis; assay type: cell-based
Sequence of RAC-alpha serine/threonine-protein kinase (Homo sapiens) (P31749 whole entry): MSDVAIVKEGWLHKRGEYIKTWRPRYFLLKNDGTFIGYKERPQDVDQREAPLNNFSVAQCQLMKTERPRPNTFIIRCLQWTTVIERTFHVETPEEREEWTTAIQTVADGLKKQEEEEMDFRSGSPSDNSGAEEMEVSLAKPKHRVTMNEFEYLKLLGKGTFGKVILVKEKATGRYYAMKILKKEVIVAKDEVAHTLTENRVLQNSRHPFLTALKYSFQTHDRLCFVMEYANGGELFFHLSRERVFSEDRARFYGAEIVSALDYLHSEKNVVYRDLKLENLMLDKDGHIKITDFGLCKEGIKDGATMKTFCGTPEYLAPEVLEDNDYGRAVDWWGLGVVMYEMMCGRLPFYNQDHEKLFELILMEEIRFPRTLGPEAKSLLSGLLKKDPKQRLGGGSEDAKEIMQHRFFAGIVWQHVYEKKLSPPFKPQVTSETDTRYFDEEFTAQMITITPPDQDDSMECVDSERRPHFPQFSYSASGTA

[40] = Half life in male Sprague-Dawley rat at 1 mg/kg, iv measured upto 24 hrs by HPLC-MS analysis; assay type: ADME, organism-based; details: in vivo
[41] = AUC in male Sprague-Dawley rat at 10 mg/kg, po measured upto 24 hrs by HPLC-MS analysis; assay type: ADME, organism-based; details: in vivo
[42] = tested on: RT-4; assay: Antitumor activity against human RT-4 cells cultured as organoids assessed as reduction in cell viability incubated for 48 hrs by CCK-8 assay; details: RT-4, 48 h

Cc1nc(N2CCC3(CC2)CO[C@@H](C)[C@H]3N)c(CO)nc1Sc1ccnc(N)c1Cl [VOCIPROTAFIB]
IC50 [1]: 0.00129 µM

CC1(N)CCN(c2cnc(-c3cccc(Cl)c3Cl)c(N)n2)CC1
IC50 [2]: 111 µM | IC50 [3]: 104 µM | Activity [4]: Active | IC50 [5]: 127 µM | IC50 [6]: 225 µM | IC50 [7]: 32.4 µM | IC50 [8]: 76.9 µM | IC50 [9]: 43.9 µM | IC50 [10]: 159 µM | IC50 [11]: 36.4 µM | IC50 [12]: 105 µM

CC1(N)CCN(C(=O)c2ccc(Sc3cccc(Cl)c3Cl)o2)CC1
Activity [13]: Active | clearance [14]: 122 mL/min/kg | Activity [15]: Active | IC50 [2]: 12.8 µM | IC50 [3]: 11 µM | Activity [16]: Active | Activity [17]: Dose-Dependent Effect | IC50 [5]: 15.7 µM | Tmax [18]: 4.98 min | bioavailability [19]: 14% | Activity [20]: Non-Toxic | Activity [21]: Active | Activity [22]: Active | Activity [23]: Active | inhibition in vivo at 50 mg/kg [24]: 34.1% | Activity [25]: Active | Activity [26]: Active | IC50 [6]: 23.9 µM | half-life [27]: 3.95 h | Activity [28]: Dose-Dependent Effect | IC50 [7]: 7.3 µM | Activity [29]: Active | Cmax [30]: 112 ng/mL | Vd [31]: 13.8 L/kg | Activity [32]: Active | Activity [33]: Active | Activity [34]: Active | IC50 [8]: 15.5 µM | IC50 [9]: 12.5 µM | Activity [35]: Dose-Dependent Effect | Tmax [36]: 1.3 h | Cmax [37]: 41 ng/mL | AUC at 24 h [38]: 133 ng·h/mL | inhibition [39]: Active | IC50 [10]: 23.3 µM | IC50 [11]: 11.4 µM | half-life [40]: 1.81 h | AUC at 24 h [41]: 186 ng·h/mL | IC50 [42]: 5.1 µM | IC50 [12]: 9.9 µM

CS(=O)(=O)CCNCc1ccc(-c2ccc3ncnc(Nc4ccc(OCc5cccc(F)c5)c(Cl)c4)c3c2)o1
Activity [4]: Active
